Values of other authors, collected in patent US9687433B2, “Anhydrous depigmenting compositions comprising phenolic compounds” (Ecstasy LLC, priority 2015, dated 2017).

Details: degraded to hydroquinone

stability in aqueous solutions: thermolabile and acid sensitive
Compound: Oc1ccc(OC2CCCCO2)cc1 (stereo not shown) [deoxyarbutin, 4-[(tetrahydro-2H-pyran-2-yl)oxy] phenol]
